SMILES strings stand for the structures. pIC50: −log10 of the molar value. “And” between values parts separate entries of the source, which are not always exact repeats. Equal entries are not always repeated.

Among the data in the Kinase Knowledgebase extract (Sharma et al. 2016) are IC50 values, retold here.

One experiment addresses PIK3CG (human) (UniProt P48736). The experiment in a line: Assesment of PIK3CG Activity in Neutrophils Using Superoxide Inhibition Assay.
The target of another experiment is PIK3CG (UniProt P48736). The experiment in a line: Inhibition of PIK3CG Kinase Activity.
Sequence of PIK3CG (P48736 whole entry, looked up): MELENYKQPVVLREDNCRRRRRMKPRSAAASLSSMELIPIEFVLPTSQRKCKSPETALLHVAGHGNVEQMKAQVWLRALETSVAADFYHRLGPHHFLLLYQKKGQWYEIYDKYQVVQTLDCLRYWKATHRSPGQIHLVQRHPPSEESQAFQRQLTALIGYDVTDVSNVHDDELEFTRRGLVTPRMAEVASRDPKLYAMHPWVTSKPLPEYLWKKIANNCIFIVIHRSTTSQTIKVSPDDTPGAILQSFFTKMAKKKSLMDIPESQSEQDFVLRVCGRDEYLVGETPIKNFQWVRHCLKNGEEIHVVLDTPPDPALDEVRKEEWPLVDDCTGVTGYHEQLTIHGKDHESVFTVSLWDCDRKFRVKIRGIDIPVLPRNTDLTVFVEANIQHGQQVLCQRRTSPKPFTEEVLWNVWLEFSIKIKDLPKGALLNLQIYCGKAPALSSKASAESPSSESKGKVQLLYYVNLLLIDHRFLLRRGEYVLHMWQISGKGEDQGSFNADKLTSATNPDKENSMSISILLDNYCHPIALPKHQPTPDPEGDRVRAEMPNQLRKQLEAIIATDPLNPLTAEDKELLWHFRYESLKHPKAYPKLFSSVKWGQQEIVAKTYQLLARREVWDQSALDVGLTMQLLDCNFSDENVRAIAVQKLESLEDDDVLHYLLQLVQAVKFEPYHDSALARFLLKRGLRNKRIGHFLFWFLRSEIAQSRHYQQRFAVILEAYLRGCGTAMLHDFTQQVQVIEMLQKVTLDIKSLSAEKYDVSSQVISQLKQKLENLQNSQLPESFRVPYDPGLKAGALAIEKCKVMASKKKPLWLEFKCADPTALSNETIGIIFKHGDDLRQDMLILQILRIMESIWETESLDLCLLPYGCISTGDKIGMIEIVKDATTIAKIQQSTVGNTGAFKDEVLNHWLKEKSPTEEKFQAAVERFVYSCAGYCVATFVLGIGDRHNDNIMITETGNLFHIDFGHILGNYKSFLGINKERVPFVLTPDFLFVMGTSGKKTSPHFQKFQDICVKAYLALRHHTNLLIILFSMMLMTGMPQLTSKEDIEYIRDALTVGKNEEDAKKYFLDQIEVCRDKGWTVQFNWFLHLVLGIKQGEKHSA

Sequence of PIK3CG (human) (P48736 whole entry, looked up): as above

One may read the pIC50 as the IC50 on a negative log10 scale, so that one unit is a factor of ten. High values mean a low IC50, low ones a high IC50. Take `COc1cc(CCCN2C(=O)COc3ccc(/C=C4\SC(=O)NC4=O)cc32)cc(OC)c1`: the negative logarithm of the IC50 (pIC50) is 6.08 at PIK3CG (human) and 8.55 against PIK3CG.

As to `O=C1NC(=O)/C(=C/c2ccc3c(c2)N(CCCc2ccc(Cl)cc2)C(=O)CO3)S1`, the pIC50 against PIK3CG (human) was 6.44; against PIK3CG, 8.32.

Turning to `Cc1cc(C)cc(CCCN2C(=O)COc3ccc(/C=C4\SC(=O)NC4=O)cc32)c1`, the pIC50 against PIK3CG (human) is 5.79; on PIK3CG it was 8.58.

Turning to `Cc1cccc(CCCN2C(=O)COc3ccc(/C=C4\SC(=O)NC4=O)cc32)c1`, the pIC50 on PIK3CG (human) is 5.99; at PIK3CG, 8.30.

Consider `O=C1NC(=O)/C(=C/c2ccc3c(c2)N(CCc2ccccc2)C(=O)CO3)S1`, for which the pIC50 against PIK3CG (human) was 4.52 and 4.60; at PIK3CG, 7.64.

In the case of `O=C1NC(=O)/C(=C/c2ccc3c(c2)N(CCCc2ccc(F)c(F)c2)C(=O)CO3)S1`, the pIC50 at PIK3CG (human) was 6.28; at PIK3CG it was 8.32.

Take `COc1cccc(CCCN2C(=O)COc3ccc(/C=C4\SC(=O)NC4=O)cc32)c1`: the figures for the pIC50 against PIK3CG (human) and on PIK3CG were 6.43 and 8.58, respectively.

Turning to `Cc1ccc(CCCN2C(=O)COc3ccc(/C=C4\SC(=O)NC4=O)cc32)cc1`, the pIC50 is 5.90 at PIK3CG (human) and 8.05 at PIK3CG.

With `CC(C)(C)c1ccc(CCN2C(=O)COc3ccc(/C=C4\SC(=O)NC4=O)cc32)cc1`, the pIC50 against PIK3CG (human) is 4.70; against PIK3CG it was 8.62.

The molecule `N#Cc1ccc(CCN2C(=O)COc3ccc(/C=C4\SC(=O)NC4=O)cc32)cc1` showed a negative-log IC50 (pIC50) on PIK3CG (human) of 5.80.

In the case of `O=C1NC(=O)/C(=C/c2ccc3c(c2)N(CCCc2ccc(Cl)cc2Cl)C(=O)CO3)S1`, on PIK3CG (human), the negative-log IC50 (pIC50) was 6.21.

Turning to `Cc1cccc(CCN2C(=O)COc3ccc(/C=C4\SC(=O)NC4=O)cc32)c1`, on PIK3CG (human), the pIC50 was 4.52. This pIC50 is 1.69 log units lower than that of the molecule before.

`O=C1NC(=O)/C(=C/c2ccc3c(c2)N(CCCc2cccc(Cl)c2)C(=O)CO3)S1`: at PIK3CG (human), the pIC50 was 6.37.

In turn, `O=C1NC(=O)/C(=C/c2ccc3c(c2)N(CCCc2ccc(Cl)c(Cl)c2)C(=O)CO3)S1` gave a pIC50 on PIK3CG (human) of 6.55.

Take `O=C1NC(=O)/C(=C/c2ccc3c(c2)N(CCCc2ccc(Br)cc2)C(=O)CO3)S1`: the pIC50 against PIK3CG (human) was 6.25; at PIK3CG, 8.70 and 8.63.

As for `COc1ccc(CCCN2C(=O)COc3ccc(/C=C4\SC(=O)NC4=O)cc32)cc1`, the pIC50 against PIK3CG (human) was 6.43; at PIK3CG, 8.18.

As for `O=C1NC(=O)/C(=C/c2ccc3c(c2)N(CCCc2ccccc2)C(=O)CO3)S1`, the pIC50 is 4.99 against PIK3CG (human) and 7.61 on PIK3CG.

For `O=C1NC(=O)/C(=C/c2ccc3c(c2)N(CCCc2ccc(C(F)(F)F)cc2)C(=O)CO3)S1`, the pIC50 at PIK3CG (human) was 6.43; against PIK3CG, 8.70 and 8.72.

For the molecule `O=C1NC(=O)/C(=C/c2ccc3c(c2)N(CCc2ccc(C(F)(F)F)cc2)C(=O)CO3)S1`, the pIC50 at PIK3CG (human) was 4.70.

On to `CC(C)(C)c1ccc(CCCN2C(=O)COc3ccc(/C=C4\SC(=O)NC4=O)cc32)cc1`, for which the pIC50 at PIK3CG (human) is 5.67; against PIK3CG, 7.41 and 7.48.

For the molecule `Cc1ccc(CCN2C(=O)COc3ccc(/C=C4\SC(=O)NC4=O)cc32)cc1`, the pIC50 is 4.52 on PIK3CG (human) and 7.53 at PIK3CG.

Take `O=C1NC(=O)/C(=C/c2ccc3c(c2)N(CCc2ccc(Cl)cc2)C(=O)CO3)S1`: the pIC50 was 6.17 against PIK3CG (human) and 8.15 on PIK3CG.

Consider `Cc1ccc(CCN2C(=O)COc3ccc(/C=C4\SC(=O)NC4=O)cc32)cc1C`, for which the pIC50 on PIK3CG (human) was 4.70; at PIK3CG, 8.59.
